Laboratory results taken from patent US10369145B2, “Coumarin derivatives and methods of use in treating hyperproliferative diseases” (DISCOVERYBIOMED, INC., priority 2013, dated 2019).
pIC50: −log10 of the molar value.

Key:
[1] = test system: NCI-H460; test: NCI 60 panel: NCI-H460 (Non-Small Cell Lung Cancer); type: cell-based
Source text: (§5) TGI means the drug concentration resulting in total growth inhibition or “cytostasis.” LC50 is the concentration of drug resulting in a 50% reduction in the measured cytosolic ATP at the end of the drug treatment as compared to that at the beginning, indicating a net loss of cells following treatment (cytotoxicity).

[2] = test system: HCT-116; test: NCI 60 panel: HCT-116 (Colon Cancer); type: cell-based
Source text: as §5

[3] = test system: SW-620; test: NCI 60 panel: SW-620 (Colon Cancer); type: cell-based
Source text: as §5

[4] = test system: SF-268; test: NCI 60 panel: SF-268 (CNS Cancer); type: cell-based
Source text: as §5

[5] = test system: U251; test: NCI 60 panel: U251 (CNS Cancer); type: cell-based
Source text: as §5

[6] = test system: SK-MEL-5; test: NCI 60 panel: SK-MEL-5 (Melanoma); type: cell-based
Source text: as §5

[7] = test system: UACC-257; test: NCI 60 panel: UACC-257 (Melanoma); type: cell-based
Source text: as §5

[8] = test system: SN12C; test: NCI 60 panel: SN12C (Renal Cancer); type: cell-based
Source text: as §5

[9] = test system: TK-10; test: NCI 60 panel: TK-10 (Renal Cancer); type: cell-based
Source text: as §5

[10] = test system: PC-3; test: NCI 60 panel: PC-3 (Prostate Cancer); type: cell-based
Source text: as §5

[11] = test system: HS 578T; test: NCI 60 panel: HS 578T (Breast Cancer); type: cell-based
Source text: as §5

[12] = test system: RPMI-8826; test: Complementary DBM in vitro profiling: RPMI-8826 (Hematologic Cancer); type: cell-based
Protocol: (§1) The compounds described herein are effective for inhibiting cellular proliferation in hyperproliferative cell types. To study the effects of these compounds, an assay was developed to differentiate the effects of the compounds on proliferating versus confluent cells. The assay design generates a proliferating density 24 hours after seeding and provides a 3-day active cell growth/doubling window in which to gauge the anti-proliferative effect of the compounds described herein. […] In this 3-day growth window, cell number increases with daily doublings across the 72-hour period (see FIG. 1).
(§2) In each assay design, compounds were added at the 24-hour timepoint after cell seeding. The effect of the compounds, relative to vehicle control and to VelCade (a proteasome inhibitor approved in the U.S. for treating relapsed multiple myeloma and mantle cell lymphoma) as a positive control, was assessed across the 3-day growth window for proliferating cells and on an already near confluent culture of cells for the same time period. Normal cells were handled in the same manner, with some adjustment of seeding density needed in select cases. […]
(§3) Cell number at the end of the assay was determined using the CELLTITER-GLO Luminescent Cell Viability Assay (Promega; Madison, Wis.). The CELLTITER-GLO Luminescent Cell Viability Assay is a homogeneous method of determining the number of viable cells in culture based on quantitation of the ATP present, an indicator of metabolically active cells. IC50 values were calculated. […]
(§4) For a typical screening experiment to identify the compounds, cells were seeded into 96- or 384-well microtiter plates at plating densities pre-determined for each cell line to ensure drug exposure occurs during the proliferative phase well before confluency is reached. […] Values were calculated for each of these three parameters if the level of activity was reached; however, if the effect was not reached or was exceeded, the value for that parameter was expressed as greater or less than the maximum or minimum concentration tested.

[13] = test system: CAKI-1; test: Complementary DBM in vitro profiling: CAKI-1 (Renal Cancer); type: cell-based
Protocol: as §1, §2, §3, §4

[14] = test system: myeloma cells; type: cell-based
Protocol: as §4, with “reached. After seeding, cells were incubated for 24 h prior to addition of experimental drugs. After 24 h, a test plate was assayed (CellTiterGlo—measurement of cytosolic ATP) to determine a baseline measurement of the cell population for each cell line at the time of drug addition. Experimental drugs were then added and cells were cultured for a 48 h drug exposure window.” for “reached.”

[15] = test system: hyperproliferative PKD cells (cloned polycystic kidney tissue cells); test: Concentration-response in primary cultures cloned from cystic kidney tissue; type: cell-based; details: hyperproliferative PKD cells, 72 hour treatment
Protocol: The concentration-response effects of Compound DBM 228, Compound DBM 308, Compound DBM 101, and Compound DBM 328 were determined in primary cultures derived as ‘clones’ from cystic versus non-cystic kidney tissue. CRC graphs, IC50 values, and the percent maximum inhibition versus lowest doses without effect were calculated with GraphPad Prism software. […] There was also a marked separation in effect between hyperproliferative PKD cells (FIG. 5A and Table 3) and WT cells (FIG. 5B and Table 4).

[16] = test system: U251MG glioblastoma cells; test: Propidium iodide-based cell cycle analysis; details: 24 h
Protocol: Cell cycle analysis was performed on U251-MG cells to determine at what point in the cell cycle the compounds described herein were acting. U251MG glioblastoma cells were treated for 24 h with increasing concentrations of Compound DBM 228.
However, at higher nM doses, the cells appear to progress toward apoptosis and programmed cell death, given the higher % of cells in pre-G0/G1.

[17] = test system: tubulin; test: Biochemical tubulin polymerization; details: FIG. 11C
Protocol: Following 24 hours of treatment with Compound DBM 228, Compound DBM 318, and Compound DBM 328, caspase 3/7 activation in U251MG cells was determined. The detection of caspase 3/7 activation in U251MG cells indicates activation of apoptosis. Tubulin polymerization was determined for Compounds DBM 227, DBM 228, DBM 308, DBM 318, DBM 701, DBM 707, DBM 715, paclitaxel, vincristine, and negative control Compound DBM 328. […] Paclitaxel served as polymerization enhancer control and vincristine served as polymerization inhibitor control.

[18] = read-out: LC50 (the source's name)
[19] = myeloma cells, 48 h drug exposure

## COc1ccccc1Nc1nc(-c2cc3cccc(N)c3oc2=O)cs1 [Compound DBM 228]
[1]
  GI50: 0.0912 µM
  TGI: 14.2 µM
[1]; [18]
  CC50: > 100 µM
[2]
  GI50: 0.0795 µM
  TGI: 10 µM
[2]; [18]
  CC50: > 100 µM
[3]
  GI50: 0.064 µM
  TGI: >100 µM
[3]; [18]
  CC50: > 100 µM
[4]
  GI50: 0.77 µM
  TGI: 55.3 µM
[4]; [18]
  CC50: > 100 µM
[5]
  GI50: 0.0468 µM
  TGI: 10.6 µM
[5]; [18]
  CC50: 35.7 µM
[6]
  GI50: 0.0768 µM
  TGI: 2.3 µM
[6]; [18]
  CC50: 26.8 µM
[7]
  TGI: 33.7 µM
[7]; [18]
  CC50: > 100 µM
[8]
  GI50: 0.526 µM
  TGI: >100 µM
[8]; [18]
  CC50: > 100 µM
[9]
  GI50: 10 µM
  TGI: 23.5 µM
[9]; [18]
  CC50: 55 µM
[10]
  GI50: 0.27 µM
  TGI: 36 µM
[10]; [18]
  CC50: > 100 µM
[11]
  GI50: 13.7 µM
  TGI: >100 µM
[11]; [18]
  CC50: > 100 µM
[12]
  GI50: 0.271 µM
  TGI: 0.312 µM
[12]; [18]
  CC50: > 30 µM
[13]
  GI50: 0.142 µM
  TGI: 1.92 µM
[13]; [18]
  CC50: 5.21 µM
[14]
  CC50: > 4 µM
[14]; [19]
  GI50: 0.16 µM
  TGI: 0.271 µM
[15]
  pIC50: 6.16
  Max inhibition: 61%
[16]; 40 nM
  percentage of cells in G0/G1: 52.2%
  percentage of cells in G2/M: 30.2%
  percentage of cells in Pre-G0/G1: 3.2%
  percentage of cells in S: 14.4%
[16]; 100 nM
  percentage of cells in G0/G1: 19.7%
  percentage of cells in G2/M: 41.1%
  percentage of cells in Pre-G0/G1: 13.6%
  percentage of cells in S: 25.6%
[16]; 400 nM
  percentage of cells in G0/G1: 1.8%
  percentage of cells in G2/M: 49.3%
  percentage of cells in Pre-G0/G1: 43.1%
  percentage of cells in S: 5.8%
[16]; increasing concentrations
  cell cycle effect, in words: G2/M arrest
[17]
  effect on biochemical tubulin polymerization, in words: modestly inhibited
